The record followed here is ChEMBL document CHEMBL4699511, “Cedrol, a Sesquiterpene Alcohol, Enhances the Anticancer Efficacy of Temozolomide in Attenuating Drug Resistance via Regulation of the DNA Damage Response and MGMT Expression” (J Nat Prod, 2020).

Data set [1] relates to DBTRG-05MG. Description: Synergistic cytotoxicity against human DBTRG-05MG cells assessed as synergistic effect index at 89.9 uM after 48 hrs in presence of 412.1 uM TMZ by MTT assay. The class given is functional. On the technique in general: Formazan colour is commonly taken as a measure of viable cells.
Data set [2] concerns DBTRG-05MG. Description: Synergistic cytotoxicity against human DBTRG-05MG cells assessed as combination index at 89.9 uM after 48 hrs in presence of 206 uM TMZ by MTT assay. It is filed as functional.
Data set [3] has as its system DBTRG-05MG. Nature of the data set: Synergistic cytotoxicity against human DBTRG-05MG cells assessed as combination index at 112.4 uM after 48 hrs in presence of 103 uM TMZ by MTT assay. The class given is functional.
Data set [4] concerns RG2. Description: Synergistic cytotoxicity against rat RG2 cells assessed as synergistic effect index at 134.9 uM after 48 hrs in presence of 309 uM TMZ by MTT assay. It is filed as functional.
Data set [5] concerns RG2. Nature of the data set: Synergistic cytotoxicity against rat RG2 cells assessed as combination index at 89.9 uM after 48 hrs in presence of 309 uM TMZ by MTT assay. It is filed as functional.
A short description of data set [6]: Synergistic cytotoxicity against rat CTX TNA2 cells assessed as synergistic effect index at 89.9 uM after 48 hrs in presence of 103 uM TMZ by MTT assay. The settings on record: ctx tna2, 48 h. The class given is cell-based.
Data set [7] is described as follows: Synergistic cytotoxicity against rat CTX TNA2 cells assessed as combination index at 112.4 uM after 48 hrs in presence of 412.1 uM TMZ by MTT assay. It is filed as cell-based. The settings on record: ctx tna2, 48 h.
The nature of data set [8]: Synergistic cytotoxicity against rat CTX TNA2 cells assessed as combination index at 134.9 uM after 48 hrs in presence of 412.1 uM TMZ by MTT assay. It is filed as cell-based. The conditions noted are these: ctx tna2, 48 h.
Data set [9] concerns DBTRG-05MG. Nature of the data set: Induction of cell cycle arrest in human DBTRG-05MG cells assessed as accumulation at G0/G1 phase at 112.4 uM after 12 hrs by propidium iodide staining based flow cytometric analysis (reference value: 47.16 +/- 1.55%). The class given is functional. A general note: A flow cytometer gives signals particle by particle.
Data set [10] has as its system DBTRG-05MG. Nature of the data set: Induction of cell cycle arrest in human DBTRG-05MG cells assessed as accumulation at S phase at 112.4 uM after 12 hrs by propidium iodide staining based flow cytometric analysis (reference value: 22.76 +/- 1.56%). It is filed as functional.
Data set [11] deals with DBTRG-05MG. Description: Induction of cell cycle arrest in human DBTRG-05MG cells assessed as accumulation at S phase at 112.4 uM after 12 hrs in presence of TMZ by propidium iodide staining based flow cytometric analysis (reference value: 22.76 +/- 1.56%). It is filed as functional.
For data set [12], the system named is RG2. Nature of the data set: Induction of cell cycle arrest in rat RG2 cells assessed as accumulation at G0/G1 phase at 112.4 uM after 48 hrs by propidium iodide staining based flow cytometric analysis (reference value: 57.81 +/- 1.9%). It is filed as functional.
Data set [13] relates to RG2. Nature of the data set: Induction of cell cycle arrest in rat RG2 cells assessed as accumulation at G2/M phase at 112.4 uM after 48 hrs by propidium iodide staining based flow cytometric analysis (reference value: 20.04 +/- 0.55%). The class given is functional.
In data set [14] the test system is DBTRG-05MG. Nature of the data set: Induction of cell cycle arrest in human DBTRG-05MG cells assessed as p21 expression at 112.4 uM after 48 hrs in presence of TMZ by Western blot analysis (reference value: 1). It is filed as functional.
Data set [15] has as its system RG2. Nature of the data set: Induction of cell cycle arrest in rat RG2 cells assessed as CDK4 expression at 112.4 uM after 48 hrs by Western blot analysis (reference value: 1). The class given is functional. For orientation: Immunoblotting shows a protein as a band on a membrane.
For data set [16], the system named is RG2. Nature of the data set: Induction of cell cycle arrest in rat RG2 cells assessed as CyclinB1 expression at 112.4 uM after 48 hrs by Western blot analysis (reference value: 1). The class given is functional.
Data set [17] has as its system RG2. Nature of the data set: Induction of cell cycle arrest in rat RG2 cells assessed as p21 expression at 112.4 uM after 48 hrs in presence of TMZ by Western blot analysis (reference value: 1). It is filed as functional.
Data set [18] has as its target MAP kinase p38 (Homo sapiens) (UniProt O15264+Q15759+Q16539+P53778). Description: Inhibition of p38 phosphorylation at Tyr182 residues in human DBTRG-05MG cells at 112.4uM after 48 hrs by Western blot analysis (reference value: 1). The class given is cell-based.
Data set [19] in a line: Effect on ERK expression in human DBTRG-05MG cells at 112.4uM after 48 hrs in presence of TMZ by Western blot analysis (reference value: 1). The class given is functional.
The test system of data set [20] is RG2. Description: Inhibition of JNK phosphorylation at Thr183/Tyr185 residues in rat RG2 cells at 112.4uM after 48 hrs by Western blot analysis (reference value: 1). The class given is cell-based.
Data set [21] in a line: Effect on p38 expression in rat RG2 cells at 112.4uM after 48 hrs in presence of TMZ by Western blot analysis (reference value: 1). The class given is functional.
Data set [22] has as its system DBTRG-05MG. Nature of the data set: Induction of apoptosis in human DBTRG-05MG cells assessed as cleaved caspace-3 expression at 112.4 uM after 48 hrs by Western blot analysis (reference value: 1). It is filed as functional.
Data set [23] relates to RG2. Nature of the data set: Induction of apoptosis in rat RG2 cells assessed as cleaved PARP expression at 112.4 uM after 48 hrs in presence of TMZ by Western blot analysis (reference value: 1). It is filed as functional.
The test system of data set [24] is RG2. Description: Induction of DNA damage in rat RG2 cells at 112.4 uM after 48 hrs in presence of TMZ by p.H2A.X staining based fluorescent immunocytochemistry method. The class given is functional, cell-based.
In data set [25] the test system is DBTRG-05MG. Description: Induction of DNA damage in human DBTRG-05MG cells assessed as ATM phosphorylation at ser1981 residues at 112.4 uM after 48 hrs by Western blot analysis (reference value: 1). The class given is functional.
Data set [26] concerns RG2. Nature of the data set: Induction of DNA damage in rat RG2 cells assessed as Chk2 phosphorylation at Thr68 at 112.4 uM after 48 hrs by Western blot analysis (reference value: 1). The class given is functional.
Data set [27] has as its system DBTRG-05MG. Nature of the data set: Induction of cell cycle arrest in human DBTRG-05MG cells assessed as accumulation at G2/M phase at 206 uM after 6 hrs by propidium iodide staining based flow cytometric analysis (reference value: 30.08 +/- 0.1%). The class given is functional.
The test system of data set [28] is DBTRG-05MG. Description: Induction of cell cycle arrest in human DBTRG-05MG cells assessed as accumulation at S phase at 206 uM after 48 hrs by propidium iodide staining based flow cytometric analysis (reference value: 22.76 +/- 1.56%). The class given is functional.
The nature of data set [29]: Effect on JNK expression in human DBTRG-05MG cells at 206 uM after 48 hrs by Western blot analysis (reference value: 1). The class given is functional.
In data set [30] the test system is DBTRG-05MG. Nature of the data set: Inhibition of ERK phosphorylation at Tyr204 residues in human DBTRG-05MG cells at 206 uM after 48 hrs by Western blot analysis (reference value: 1). It is filed as cell-based.
In data set [31] the test system is RG2. Description: Inhibition of ERK phosphorylation at Tyr204 residues in rat RG2 cells at 206 uM after 48 hrs by Western blot analysis (reference value: 1). The class given is cell-based.
The subject of data set [32] is DBTRG-05MG. Nature of the data set: Induction of apoptosis in human DBTRG-05MG cells assessed as Bcl2 expression at 206 uM after 48 hrs by Western blot analysis (reference value: 1). It is filed as functional.
Data set [33] relates to RG2. Nature of the data set: Induction of apoptosis in rat RG2 cells assessed as phosphorylated caspace-9 expression at 206 uM after 48 hrs by Western blot analysis (reference value: 1). The class given is functional.
Data set [34] relates to DBTRG-05MG. Description: Induction of DNA damage in human DBTRG-05MG cells assessed as ATM phosphorylation at ser1981 residues at 206 uM after 48 hrs by Western blot analysis (reference value: 1). It is filed as functional.

Each structure is given as a SMILES string. Calls of active or inactive are those of the source. The calls are words filed in the database; no cut-off is given here.

As for `C[C@@H]1CC[C@H]2C(C)(C)[C@H]3C[C@@]12CC[C@@]3(C)O` [CEDROL], the Activity_index in the data set with DBTRG-05MG [1] was 0.76; in the data set with RG2 [4] it was 0.89; in data set [6], 0.24. In addition, the CI in the data set on DBTRG-05MG [2] is given as 0.74; in the data set with DBTRG-05MG [3] it was 0.56; with RG2 [5], 1.04; in data set [7] it was 1.1; in data set [8] it was 1.13. Also, the Activity with DBTRG-05MG [9] is listed as 54.65%; in the data set on DBTRG-05MG [10], 14.32%; with DBTRG-05MG [11], 16.75%; in the data set with RG2 [12], 61.9%; in the data set with RG2 [13], 20.33%. The “fold change (FC)” value in the data set with DBTRG-05MG [14] turned out to be 2.7; in the data set on RG2 [15] it was 0.8; in the data set on RG2 [16], 0.5; with RG2 [17], 2.5; in data set [18] it was 1; in [19], 0.8. In addition, the fold change (FC) in the data set on RG2 [20] stood at 0.7; in data set [21] it was 0.5; with DBTRG-05MG [22], 2.2; in the data set on RG2 [23], 1.6; in the data set with DBTRG-05MG [25] it was 1.8; with RG2 [26], 1. Moreover, the outcome in the data set with RG2 [24] was Active.
Regarding `Cn1nnc2c(C(N)=O)ncn2c1=O` [TEMOZOLOMIDE], the Activity is given as 34.67% in the data set with DBTRG-05MG [27] and 23.42% in the data set with DBTRG-05MG [28]. The “fold change (FC)” value was 0.7 in data set [29]; 0.8 in the data set on DBTRG-05MG [30]; 0.7 in the data set on RG2 [31]; 1.3 in the data set on DBTRG-05MG [32]; 0.8 with RG2 [33]; 2.8 with DBTRG-05MG [34].
